The results in this text go back to patent US20120302614A1, “METHOD FOR IMPROVING CEREBRAL CIRCULATION OR TREATING A CEREBRAL BLOOD FLOW DISORDER” (OSAKA UNIVERSITY, priority 2007, published 2012).

The test system of this assay is Aβ injection model (Aβ 1-40 administered intracerebroventricularly). Kind of assay: Morris water maze tests in Aβ injection model, Test Example 2. The class given is in vivo, ddY mouse. To be noted: olmesartan medoxomil 1 mg/kg/day, hydralazine 30 mg/kg/day. The protocol:
The therapeutic effect of olmesartan medoxomil in Aβ injection model and the dose dependency thereof were examined according to the following experimental schedule. [Experimental Schedule]: Prior to the experiment, 8-week old male ddY mice were administered olmesartan medoxomil (0.5 mg/kg/day, 1 mg/kg/day, 3 mg/kg/day or 6 mg/kg/day) or distilled water orally for four weeks (day −28 to −1). Then, Aβ 1-40 was administered to the mice intracerebroventricularly (day 0). (Although Aβ 1-40 was administered into one of the lateral ventricles in WO 2006/059777, Aβ 1-40 was administered in Test Example 1 to both lateral ventricles with an interval of one day between two administrations. Except for this point, Aβ 1-40 administration was performed in the same manner as in WO 2006/059777.) From one week thereafter, a behavioral test to evaluate cognitive function (Morris water maze test; Morris R et al., J Neuroscience Methods 1984, 11, 47-60) was performed (day 7 to 12). As a negative control, mice which had received oral administration of distilled water for four weeks were administered Aβ 40-1 intracerebroventricularly. The administration of olmesartan medoxomil or distilled water was continued until the end of the behavioral test. Measurements were performed as described below. • Hidden platform test: A platform is placed below the water surface of a water pool 150 cm in diameter filled with white water-colored. Mice are released into the water, and the time it takes them to reach the platform is measured. This trial is performed three times a day and for five consecutive days. As they learn, mice become able to reach the platform more quickly day by day. • Visible platform test: Mice are released into the water under such conditions that they can see the platform. The time it takes them to reach the platform is measured. • Probe test: The platform is removed, and mice are released and allowed to swim freely. Those mice with good learning/memory swim in the quadrant where the platform was located searching for the platform. The time they spent in that quadrant is measured. • Annnulus crossing: The number of times mice crossed the platform in the probe test is counted. […] The dose of olmesartan medoxomil was set at a low level of 1 mg/kg/day in view of the experimental results of Test Example 1. […] As behavioral tests to assess cognitive function, Morris water maze tests were performed as in Test Example 1 (hidden platform test, visible platform test and probe test) and, in addition, an open field test was also performed. Further, long-term retention, working memory task and swimming speed were also examined in the Morris water maze tests. Measurements were performed as described below. • Open field test: A cubic box (30×30×30 cm) is used. On each X and Y bank of the open-field area, two infrared beams are attached 2 cm above the floor at a 10 cm interval. The number of successive interceptions by the subject of the two adjoining beams on each bank is counted as locomotion score. • Long-term retention: On day 12 after the completion of the hidden platform test as a water maze test, mice are released into the water and the time it takes them to reach the platform is measured. • Working memory task: The platform is transferred and fixed at a new place. Mice are given four consecutive trials at intervals of as short as 20 seconds, and the time it takes them to reach the platform is measured. […] In order to eliminate this influence, swimming speed is measured.

The structures appear in SMILES notation.

As for `CCCc1nc(C(C)(C)O)c(C(=O)OCc2oc(=O)oc2C)n1Cc1ccc(-c2ccccc2-c2nnn[nH]2)cc1` [olmesartan medoxomil, (5-methyl-2-oxo-1,3-dioxolen-4-yl)methyl 4-(1-hydroxy-1-methylethyl)-2-propyl-1-[4-[2-(tetrazol-5-yl)phenyl]phenyl]methyl-imidazole-5-carboxylate], the “spatial memory impairment and learning disability evoked by Aβ 1-40 (Morris water test, summary)” value is listed as “significantly improved”; the “working memory task: time to reach the platform compared to Aβ 1-40 administration group” value was “shortened”. Besides, for the setting “Aβ 1-40 + drug”, the “annulus crossings: number of platform crossings compared to Aβ 1-40 administration group” value is “increased” and the “hidden platform test: time to reach the platform” value is “shortened through successive sessions”. Also, the “long-term retention: time to reach the platform compared to Aβ 1-40 administration group” value (day 17) is recorded as “shortened”.
